In US8551980B2, “Substituted triazolopyridines” (Bayer Intellectual Property GmbH, priority 2009, dated 2013) one finds IC50 data, which are given here for 1 compound.

As usually defined, the IC50 is the point on the concentration scale where inhibition reaches its midpoint.

The assay has as its target T1, human kinase Mps-1 (Homo sapiens, UniProt P33981).
T1 construct: N-terminally GST-tagged human full length recombinant Mps-1 kinase; GST (N); purchased Invitrogen, Karslruhe, Germany PV4071
T1 sequence (P33981 1-857): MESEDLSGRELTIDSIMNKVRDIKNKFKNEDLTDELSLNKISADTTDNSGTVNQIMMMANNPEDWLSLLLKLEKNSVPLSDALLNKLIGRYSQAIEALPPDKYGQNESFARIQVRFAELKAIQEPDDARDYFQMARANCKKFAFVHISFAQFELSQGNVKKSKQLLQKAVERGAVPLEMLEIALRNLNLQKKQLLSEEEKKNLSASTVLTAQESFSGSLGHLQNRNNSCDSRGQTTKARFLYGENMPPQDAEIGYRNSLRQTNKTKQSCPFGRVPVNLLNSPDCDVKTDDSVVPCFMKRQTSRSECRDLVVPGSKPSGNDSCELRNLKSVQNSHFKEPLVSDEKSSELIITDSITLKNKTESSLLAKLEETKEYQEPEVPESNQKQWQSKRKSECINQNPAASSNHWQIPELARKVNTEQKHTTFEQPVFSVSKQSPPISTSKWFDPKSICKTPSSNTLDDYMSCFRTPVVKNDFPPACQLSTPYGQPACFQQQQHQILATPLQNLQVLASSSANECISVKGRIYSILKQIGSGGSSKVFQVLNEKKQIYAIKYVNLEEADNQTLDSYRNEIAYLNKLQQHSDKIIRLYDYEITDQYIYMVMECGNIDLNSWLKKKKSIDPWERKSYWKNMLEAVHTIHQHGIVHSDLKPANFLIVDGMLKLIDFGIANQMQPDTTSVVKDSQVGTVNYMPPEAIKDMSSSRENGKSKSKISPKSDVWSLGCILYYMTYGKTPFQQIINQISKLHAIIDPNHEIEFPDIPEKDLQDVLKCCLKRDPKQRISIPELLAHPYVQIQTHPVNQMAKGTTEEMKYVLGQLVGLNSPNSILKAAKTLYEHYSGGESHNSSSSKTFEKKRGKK
The experiment in a line: Mps-1 kinase assay (TR-FRET). It is filed as biochemical. The following applies: N-terminally GST-tagged human full length recombinant Mps-1; 10 μM ATP; 1 μM peptide substrate; 60 min at 22° C.; read-out: MPS1 Inhibition, IC50 in M. The method, then: The human kinase Mps-1 phosphorylates a biotinylated substrate peptide. Detection of the phosphorylated product is achieved by time-resolved fluorescence resonance energy transfer (TR-FRET) from Europium-labelled anti-phospho-Serine/Threonine antibody as donor to streptavidin labelled with cross-linked allophycocyanin (SA-XLent) as acceptor. Compounds are tested for their inhibition of the kinase activity.
N-terminally GST-tagged human full length recombinant Mps-1 kinase (purchased from Invitrogen, Karslruhe, Germany, cat. no PV4071) was used. […]
The resulting mixture was incubated 1 h at 22° C. to allow the binding of the phosphorylated peptide to the anti-phospho(Ser/Thr)-Europium-antibody. Subsequently the amount of phosphorylated substrate was evaluated by measurement of the resonance energy transfer from the Europium-labelled anti-phospho(Ser/Thr) antibody to the Streptavidin-XLent. Therefore, the fluorescence emissions at 620 nm and 665 nm after excitation at 350 nm was measured in a Viewlux TR-FRET reader (PerkinElmer LAS, Rodgau-Jügesheim, Germany). The “blank-corrected normalized ratio” (a Viewlux specific readout, similar to the traditional ratio of the emissions at 665 nm and at 622 nm, in which blank and Eu-donor crosstalk are subtracted from the 665 nm signal before the ratio is calculated) was taken as the measure for the amount of phosphorylated substrate. […]
(In general: Time-resolved FRET reads energy transfer from a long-lived donor to a nearby acceptor.)

Regarding `Cc1c(-c2ccc(NC(=O)Cc3ccccc3)cc2)ccc2nc(Nc3ccccc3C#N)nn12` [Example 1.1, N-(4-{2-[(2-cyanophenyl)amino]-5-methyl[1,2,4]triazolo[1,5-a]pyridin-6-yl}phenyl)-2-phenylacetamide], the IC50 worked out at 1.8 nM.
